# Data from patent US10377770B2 (Novartis AG, priority 2015, dated 2019).
# Target: C-Raf FL (full length CRAF with Y340E and Y341E activating mutations, co-expressed with h14-3-3 zeta) (Homo sapiens (Human), UniProt P04049, Y340E/Y341E)
# Experiment: In vitro Raf activity determination, AlphaScreen p-MEK readout, c-Raf (C-Raf FL)
# Type: biochemical
# Conditions: c-Raf approximately 4 nM, ATP 1 μM, pre-incubation 60 minutes, reaction 1 hour
# Procedure, shortened: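 Phosphorylation of kinase-dead biotinylated MEK1 (~10 nM) by C-Raf FL (~4 nM) read by AlphaScreen luminescence with anti-phospho-MEK1/2 after EDTA stop. ATP was 1 μM, with a 1 h reaction at room temperature. Compounds were pre-incubated with enzyme and substrate for 60 min in Tris/MgCl2 buffer, pH 7.5.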
# Sequence of C-Raf FL (full length CRAF with Y340E and Y341E activating mutations, co-expressed with h14-3-3 zeta) (P04049 whole entry Y340E/Y341E): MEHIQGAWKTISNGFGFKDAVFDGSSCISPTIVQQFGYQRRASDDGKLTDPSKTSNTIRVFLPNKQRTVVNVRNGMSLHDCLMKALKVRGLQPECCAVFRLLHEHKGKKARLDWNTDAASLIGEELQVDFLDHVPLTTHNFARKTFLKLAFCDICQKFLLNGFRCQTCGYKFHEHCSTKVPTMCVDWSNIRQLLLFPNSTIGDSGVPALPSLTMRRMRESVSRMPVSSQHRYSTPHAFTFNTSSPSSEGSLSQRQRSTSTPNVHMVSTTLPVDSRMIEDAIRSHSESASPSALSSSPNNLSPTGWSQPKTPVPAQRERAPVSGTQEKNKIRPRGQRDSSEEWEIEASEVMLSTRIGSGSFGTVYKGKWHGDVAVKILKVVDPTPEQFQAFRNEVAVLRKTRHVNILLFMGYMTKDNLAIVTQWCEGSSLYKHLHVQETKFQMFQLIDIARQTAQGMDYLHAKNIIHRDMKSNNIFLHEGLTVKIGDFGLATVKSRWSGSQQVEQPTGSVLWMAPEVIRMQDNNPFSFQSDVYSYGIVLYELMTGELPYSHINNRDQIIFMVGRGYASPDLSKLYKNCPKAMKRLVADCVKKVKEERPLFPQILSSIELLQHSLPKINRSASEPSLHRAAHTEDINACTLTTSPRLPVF
# Sequence of C-Raf FL (full length CRAF with Y340E and Y341E activating mutations, co-expressed with h14-3-3 zeta) (P63104 whole entry partner): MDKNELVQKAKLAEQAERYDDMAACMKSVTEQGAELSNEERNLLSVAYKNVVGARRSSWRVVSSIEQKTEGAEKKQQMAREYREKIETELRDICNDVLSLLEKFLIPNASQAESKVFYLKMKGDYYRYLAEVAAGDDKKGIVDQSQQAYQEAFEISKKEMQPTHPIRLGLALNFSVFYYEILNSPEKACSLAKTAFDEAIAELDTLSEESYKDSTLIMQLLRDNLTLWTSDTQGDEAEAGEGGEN
row,Structure (SMILES),IC50 [nM]
1,"Cc1ncc(NC(=O)c2cccc(C(F)(F)F)c2)cc1-c1cc2c(cc1F)C[C@](F)(CO)[C@H]1COCCN21 [Example 479, N-(5-((4aR,5R)-5,8-difluoro-5-(hydroxymethyl)-1,2,4,4a,5,6-hexahydro-[1,4]oxazino[4,3-a]quinolin-9-yl)-6-methylpyridin-3-yl)-3-(trifluoromethyl) benzamide]",0.4
2,"Cc1ccc(NC(=O)c2ccnc(C(F)(F)F)c2)cc1-c1cc2c(cc1F)C[C@](F)(CO)[C@H]1COCCN21 [Example 480, N-(3-((4aR,5R)-5,8-difluoro-5-(hydroxymethyl)-1,2,4,4a,5,6-hexahydro-[1,4]oxazino[4,3-a]quinolin-9-yl)-4-methylphenyl)-2-(trifluoromethyl) isonicotinamide]",0.2
3,"Cc1ccc(NC(=O)c2ccnc(C(C)(F)F)c2)cc1-c1cc2c(cc1F)C[C@@](F)(CO)[C@@H]1COCCN21 [Example 481, N-(3-((4aS,5S)-5,8-difluoro-5-(hydroxymethyl)-1,2,4,4a,5,6-hexahydro-[1,4]oxazino[4,3-a]quinolin-9-yl)-4-methylphenyl)-2-(1,1-difluoroethyl)iso-nicotinamide]",1.1
4,"Cc1ccc(NC(=O)c2cnnc(C(F)(F)F)c2)cc1-c1cc2c(cc1F)C[C@@](F)(CO)[C@@H]1COCCN21 [Example 482, N-(3-((4aS,5S)-5,8-difluoro-5-(hydroxymethyl)-1,2,4,4a,5,6-hexahydro-[1,4]oxazino[4,3-a]quinolin-9-yl)-4-methylphenyl)-6-(trifluoromethyl) pyridazine-4-carboxamide]",0.3
5,"Cc1ccc(NC(=O)c2ccnc(C(C)(C)F)c2)cc1-c1cc2c(cc1F)C[C@@](F)(CO)[C@@H]1COCCN21 [Example 483, N-(3-((4aS,5S)-5,8-difluoro-5-(hydroxymethyl)-1,2,4,4a,5,6-hexahydro-[1,4]oxazino[4,3-a]quinolin-9-yl)-4-methylphenyl)-2-(2-fluoropropan-2-yl)isonicotinamide]",1
6,"Cc1ncc(NC(=O)c2cccc(C(F)(F)F)c2)cc1-c1cc2c(cc1F)C[C@@](F)(CO)[C@@H]1COCCN21 [Example 484, N-(5-((4aS,5S)-5,8-difluoro-5-(hydroxymethyl)-1,2,4,4a,5,6-hexahydro-[1,4]oxazino[4,3-a]quinolin-9-yl)-6-methylpyridin-3-yl)-3-(trifluoromethyl) benzamide]",4.1
7,"Cc1ccc(NC(=O)c2ccnc(C(F)(F)F)c2)cc1-c1cc2c(cc1F)C[C@@](F)(CO)[C@@H]1COCCN21 [Example 485, N-(3-((4aS,5S)-5,8-difluoro-5-(hydroxymethyl)-1,2,4,4a,5,6-hexahydro-[1,4]oxazino[4,3-a]quinolin-9-yl)-4-methylphenyl)-2-(trifluoromethyl) isonicotinamide]",0.3
8,"Cc1ccc(NC(=O)c2cncc(C(F)(F)F)c2)cc1-c1cc2c(cc1F)C[C@@](F)(CO)[C@@H]1COCCN21 [Example 486, N-(3-((4aS,5S)-5,8-difluoro-5-(hydroxymethyl)-1,2,4,4a,5,6-hexahydro-[1,4]oxazino[4,3-a]quinolin-9-yl)-4-methylphenyl)-5-(trifluoromethyl) nicotinamide]",1.6
9,"Cc1ccc(NC(=O)c2cncc(C(F)(F)F)c2)cc1-c1cc2c(cc1F)C[C@](F)(CO)[C@@H]1COCCN21 [Example 487, N-(3-((4aS,5R)-5,8-difluoro-5-(hydroxymethyl)-1,2,4,4a,5,6-hexahydro-[1,4]oxazino[4,3-a]quinolin-9-yl)-4-methylphenyl)-5-(trifluoromethyl) nicotinamide]",0.7
10,"Cc1ccc(NC(=O)c2cncc(C(F)(F)F)c2)cc1-c1cc2c(cc1F)C[C@](F)(CO)[C@H]1COCCN21 [Example 488, N-(3-((4aR,5R)-5,8-difluoro-5-(hydroxymethyl)-1,2,4,4a,5,6-hexahydro-[1,4]oxazino[4,3-a]quinolin-9-yl)-4-methylphenyl)-5-(trifluoromethyl) nicotinamide]",0.3
11,"Cc1ccc(NC(=O)c2cncc(C(F)(F)F)c2)cc1-c1cc2c(cc1F)C[C@@](F)(CO)[C@H]1COCCN21 [Example 489, N-(3-((4aR,5S)-5,8-difluoro-5-(hydroxymethyl)-1,2,4,4a,5,6-hexahydro-[1,4]oxazino[4,3-a]quinolin-9-yl)-4-methylphenyl)-5-(trifluoromethyl) nicotinamide]",0.4
12,"Cc1ncc(NC(=O)c2cccc(C(F)(F)F)c2)cc1-c1cnc2c(c1)N1CCOC[C@H]1[C@@H](CO)C2 [Example 490, N-(5-((4aR,5S)-5-(hydroxymethyl)-1,2,4,4a,5,6-hexahydro-[1,4]oxazino[4,3-a][1,5]naphthyridin-9-yl)-6-methylpyridin-3-yl)-3 - (trifluoro-methyl)benzamide]",0.5
13,"Cc1ccc(NC(=O)c2ccnc(C(C)(F)F)c2)cc1-c1cnc2c(c1)N1CCOC[C@H]1[C@@H](CO)C2 [Example 492, 2-(1,1-difluoroethyl)-N-(3-((4aR,5S)-5-(hydroxymethyl)-1,2,4,4a,5,6-hexahydro-[1,4]oxazino[4,3-a][1,5]naphthyridin-9-yl)-4-methylphenyl)iso-nicotinamide]",0.2
14,"Cc1ncc(NC(=O)c2cccc(C(F)(F)F)c2)cc1-c1cnc2c(c1)N1CCOC[C@@H]1[C@H](CO)C2 [Example 493, N-(5-((4aS,5R)-5-(hydroxymethyl)-1,2,4,4a,5,6-hexahydro-[1,4]oxazino[4,3-a][1,5]naphthyridin-9-yl)-6-methylpyridin-3-yl)-3-(trifluorometh-yl)benzamide]",0.1
15,"Cc1ccc(NC(=O)c2ccnc(C(F)(F)F)c2)cc1-c1cnc2c(c1)N1CCOC[C@@H]1[C@H](CO)C2 [Example 494, N-(3-((4aS,5R)-5-(hydroxymethyl)-1,2,4,4a,5,6-hexahydro-[1,4]oxazino[4,3-a][1,5]naphthyridin-9-yl)-4-methyphenyl)-2-(trifluoromethyl)iso-nicotinamide]",0.1
16,"Cc1ccc(NC(=O)c2ccnc(C(C)(F)F)c2)cc1-c1cnc2c(c1)N1CCOC[C@@H]1[C@H](CO)C2 [Example 495, 2-(1,1-difluoroethyl)-N-(3-((4aS,5R)-5-(hydroxymethyl)-1,2,4,4a,5,6-hexahydro-[1,4]oxazino[4,3-a][1,5]naphthyridin-9-yl)-4-methylphenyl)iso-nicotinamide]",0.1
17,"CCN1C[C@H]2COCCN2c2cc(-c3cc(NC(=O)c4ccnc(C(F)(F)F)c4)ccc3C)cnc2C1=O [Example 496, (S)-N-(3-(6-ethyl-7-oxo-1,2,4a,5,6,7-hexahydro-4H-[1,4]oxazino[4,3-a]pyrido[2,3-f][1,4]diazepin-10-yl)-4-methylphenyl)-2-(trifluoromethyl)iso-nicotinamide]",0.7
18,"CCN1C[C@H]2COCCN2c2cc(-c3cc(NC(=O)c4cccc(C(F)(F)F)c4)cnc3C)cnc2C1=O [Example 497, (S)-N-(5-(6-ethyl-7-oxo-1,2,4a,5,6,7-hexahydro-4H-[1,4]oxazino[4,3-a]pyrido[2,3-f][1,4]diazepin-10-yl)-6-methylpyridin-3-yl)-3-(trifluoromethyl) benzamide]",1.4
19,"CCN1C[C@H]2COCCN2c2cc(-c3cc(NC(=O)c4ccnc(C(C)(F)F)c4)ccc3C)cnc2C1=O [Example 498, (S)-2-(1,1-difluoroethyl)-N-(3-(6-ethyl-7-oxo-1,2,4a,5,6,7-hexahydro-4H-[1,4]oxazino[4,3-a]pyrido[2,3-f][1,4]diazepin-10-yl)-4-methylphenyl)iso-nicotinamide]",0.6
20,"CCN1C[C@H]2COCCN2c2cc(-c3cc(NC(=O)c4ccnc(C(F)(F)F)c4F)ccc3C)cnc2C1=O [Example 499, (S)-N-(3-(6-ethyl-7-oxo-1,2,4a,5,6,7-hexahydro-4H-[1,4]oxazino[4,3-a]pyrido[2,3-f][1,4]diazepin-10-yl)-4-methyplhenyl)-3-fluoro-2-(trifluoromethyl)iso-nicotinamide]",0.4
21,"CCN1C[C@@H]2COCCN2c2cc(-c3cc(NC(=O)c4ccnc(C(F)(F)F)c4)ccc3C)cnc2C1=O [Example 500, (R)-N-(3-(6-ethyl-7-oxo-1,2,4a,5,6,7-hexahydro-4H-[1,4]oxazino[4,3-a]pyrido[2,3-f][1,4]diazepin-10-yl)-4-methylphenyl)-2-(trifluoromethyl)iso-nicotinamide]",0.1
22,"CCN1C[C@@H]2COCCN2c2cc(-c3cc(NC(=O)c4cccc(C(F)(F)F)c4)cnc3C)cnc2C1=O [Example 501, (R)-N-(5-(6-ethyl-7-oxo-1,2,4a,5,6,7-hexahydro-4H-[1,4]oxazino[4,3-a]pyrido[2,3-f][1,4]diazepin-10-yl)-6-methypyridin-3-yl)-3-(trifluoro-methyl)benzamide]",0.2
23,"CCN1C[C@@H]2COCCN2c2cc(-c3cc(NC(=O)c4ccnc(C(C)(F)F)c4)ccc3C)cnc2C1=O [Example 502, (R)-2-(1,1-difluoroethyl)-N-(3-(6-ethyl-7-oxo-1,2,4a,5,6,7-hexahydro-4H-[1,4]oxazino[4,3-a]pyrido[2,3-f][1,4]diazepin-10-yl)-4-methylphenyl)iso-nicotinamide]",0.2
24,CCN1C[C@@H]2COCCN2c2cc(-c3cc(NC(=O)c4ccnc(C(F)(F)F)c4F)ccc3C)cnc2C1=O [Example 503],0.1
25,"CCN1C[C@@H]2CCOCCN2c2cc(-c3cc(NC(=O)c4ccnc(C(F)(F)F)c4)ccc3C)cnc2C1=O [Example 504, (S)-N-(3-(7-ethyl-8-oxo-1,2,4,5,5a,6,7,8-octahydropyrido[2′, 3′:6,7][1,4]diazepino [1,2-d][1,4]oxazepin-11-yl)-4-methylphenyl)-2-(trifluoromethyl)iso-nicotinamide]",15.4
26,"CCN1C[C@H]2CCOCCN2c2cc(-c3cc(NC(=O)c4ccnc(C(F)(F)F)c4)ccc3C)cnc2C1=O [Example 505, (R)-N-(3-(7-ethyl-8-oxo-1,2,4,5,5a,6,7,8-octahydropyrido[2′, 3′:6,7][1,4]diazepino [1,2-d][1,4]oxazepin-11-yl)-4-methylphenyl)-2-(trifluoromethyl)iso-nicotinamide]",3.6
